Data taken from US5965539A, “Inhibitors of prenyl transferases” (Univeristy of Pittsburgh, priority 1996, dated 1999).
“Also recorded” adds a separate entry of the source. Like-named read-outs stand apart in the source and are kept apart here.

How the values were obtained:
FTase [1] = conditions: published; cited from earlier work
rat brain FTase = molecular target: T1, rat brain FTase (Rattus norvegicus, UniProt Q02293); assay: Inhibition of rat brain FTase purified to homogeneity; type: biochemical
T1 construct: 50 nM towards rat brain FTase purified to homogeneity; from tissue; host or cells: rat brain

Rap1A processing = Rap1A processing assay in EJ3 / Ras transformed 3T3 cells (FIG. 16B); type: cell-based
Experimental: For Rap1A processing assays, 50 μg of cell lysates were electrophoresed as described above for Ras processing and transferred to nitrocellulose. These membranes were then blocked with 5% milk in Tris-buffered saline, pH 8.0, containing 0.5% Tween-20 and probed with anti-Rap1A (1 μg/ml in 5% milk/TBS-T; Santa Cruz Biotechnology, Santa Cruz, Calif.). Antibody reactions were visualized using peroxidase-conjugated goat anti-rabbit IgG (Oncogene) and ECL chemiluminescence as described above.

FTase [2] = molecular target: T2, FTase (Homo sapiens, UniProt P49356); assay: Peptidomimetics farnesylation assay (silica gel TLC); type: biochemical
T2 construct: FTase and GGTase I activities from 60,000×g supernatants of human Burkitt lymphoma (Daudi) cells; endogenous in cells; host or cells: human Burkitt lymphoma (Daudi) cells, 60,000xg supernatant (partially purified)
T2 sequence (P49356 whole entry): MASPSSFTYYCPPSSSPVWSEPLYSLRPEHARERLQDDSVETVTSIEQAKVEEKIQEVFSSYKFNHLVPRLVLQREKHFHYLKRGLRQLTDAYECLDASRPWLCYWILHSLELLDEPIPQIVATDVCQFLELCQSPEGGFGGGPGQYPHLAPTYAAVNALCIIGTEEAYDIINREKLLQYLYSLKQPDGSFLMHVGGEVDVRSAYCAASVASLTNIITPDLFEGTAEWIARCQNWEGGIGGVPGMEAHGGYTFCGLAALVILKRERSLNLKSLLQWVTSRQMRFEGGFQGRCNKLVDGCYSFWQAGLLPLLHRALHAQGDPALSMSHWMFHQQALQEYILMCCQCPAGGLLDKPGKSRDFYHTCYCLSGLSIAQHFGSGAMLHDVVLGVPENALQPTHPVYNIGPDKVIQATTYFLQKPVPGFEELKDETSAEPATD
Experimental: The ability of human Burkitt lymphoma (Daudi) FTase to farnesylate peptides and peptidomimetics was determined as described previously (34, 35). Briefly, 25 μl of reaction mixture containing 50 μg of 60,000×g supernatants and 20 μM peptidomimetic in 50 mM Tris, pH 7.5, 50 μM ZnCl2, 20 mM KCl, 3 mM MgCl2, 1 mM DTT and 0.2% octylβ-D-glucoside was incubated for 30 minutes at 37° C., then spotted onto silica gel G TLC sheets (20×20 cm, Brinkmann Instruments), and developed with n-propanol/5 N ammonium hydroxide/water (6:1:1). The dried sheets were sprayed with En^3 Hance (DuPont NEN) and exposed to x-ray film for detection of [^3 H] farnesylated products.

FTase [3] = molecular target: T2, FTase; assay: FTase activity assay: transfer of [3H]farnesyl from FPP to recombinant H-Ras-CVLS, Daudi 60,000xg supernatant; type: biochemical
Experimental: FTase and GGTase I activities from 60,000×g supernatants of human Burkitt lymphoma (Daudi) cells (ATCC, Rockville, Md., USA) were assayed as described previously for FTase (41). Briefly, 100 μg of the supernatant was incubated in 50 mM Tris, pH 7.5, 50 μM ZnCl2, 20 mM KCl and 1 mM dithiothreitol (DTT).
Human Burkitt lymphoma (Daudi) cells (ATCC, Rockville, Md.) were grown in suspension in RPMI 1640 medium containing 10% fetal bovine serum (FBS) and 1% Pen-Strep in a humidified 10% CO2 incubator at 37° C. The cells were harvested and sonicated in 50 mM Tris, pH 7.5, 1 mM EDTA, 1 mM EGTA, 25 μg/ml leupeptin, 1 mM phenylmethylsulfonyl fluoride. Homogenates were then spun at 12,000×g and the resulting supernatant further spun at 60,000×g. The supernatant was assayed for both FTase and GGTase I. Briefly, 100 μg of the supernatants was incubated in 50 mM Tris, pH 7.5, 50 μM ZnCl2, 20 mM KCl, 3 mM MgCl2 and 1 mM DTT. […] FPP (625 nM; 16.3 Ci/mmol). For GGTase assays, the reaction was also incubated for 30 minutes at 37° C. but with recombinant H-Ras-CVLL (5 μM) and [^3 H] GGPP (525 nM; 19.0 Ci/mmol). The reaction was stopped and passed through glass fiber filters to separate free and incorporated label. For inhibition studies, the peptidomimetics were premixed with FTase or GGTase I prior to adding the remainder of the reaction mixture. […] Recombinant H-Ras-CVLL was prepared from bacteria (32).
FTase and GGTase I activities from 60,000×g supernatants of human Burkitt lymphoma (Daudi) cells (ATCC, Rockville, Md.) were assayed exactly as described previously for FTase (41).

Ras processing = Ras processing assay in EJ3 / Ras transformed 3T3 cells (FIG. 16A); type: cell-based
Experimental: EJ3 cells were treated with peptidomimetics or vehicle for 20-24 h. Cells were lysed in lysis buffer (10 mM Na2 HPO4, pH 7.25, 150 mM NaCl, 0.1% sodium dodecyl sulfate, 1% Triton X-100, 12 mM sodium deoxycholate, 1 mM NaF, 0.2% NaN3, 2 mM PMSF, 25 μg/ml leupeptin) and the lysates were cleared by spinning at 13,000 rpm for 15 minutes. Ras protein was immunoprecipitated overnight at 4° C. with 50 μg of anti-Ras antibody (Y13-259; hybridoma from ATCC, Rockville, Md.) along with 30 μl Protein A-agarose goat anti-rat IgG complex (oncogene Science, Uniondale, N.Y.). Immunoprecipitates were washed 4 times with lysis buffer and the bound proteins were released by heating for 5 minutes in 40 μl SDS-PAGE sample buffer and subsequently electrophoresed on a 12.5% SDS-PAGE.

GGTase I = molecular target: T3, GGTase I (Homo sapiens, UniProt P53609); assay: GGTase I activity assay: transfer of [3H]geranylgeranyl to recombinant H-Ras-CVLL, Daudi 60,000xg supernatant; type: biochemical
T3 construct: FTase and GGTase I activities from 60,000×g supernatants of human Burkitt lymphoma (Daudi) cells; endogenous in cells; host or cells: human Burkitt lymphoma (Daudi) cells, 60,000xg supernatant (partially purified)
T3 sequence (P53609 whole entry): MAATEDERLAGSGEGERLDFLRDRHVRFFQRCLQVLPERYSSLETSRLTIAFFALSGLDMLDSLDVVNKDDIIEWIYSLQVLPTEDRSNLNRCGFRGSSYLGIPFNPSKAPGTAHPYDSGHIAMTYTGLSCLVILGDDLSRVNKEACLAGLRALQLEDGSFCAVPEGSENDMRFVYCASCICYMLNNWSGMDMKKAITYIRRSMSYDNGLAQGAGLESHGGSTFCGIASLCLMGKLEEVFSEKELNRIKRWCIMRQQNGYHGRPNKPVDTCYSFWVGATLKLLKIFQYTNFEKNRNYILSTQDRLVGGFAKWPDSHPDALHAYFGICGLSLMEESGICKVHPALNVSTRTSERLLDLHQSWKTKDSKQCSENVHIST

Row | Molecule | IC50 (FTase [1]) [nM] | IC50 (rat brain FTase) [nM] | inhibition of Rap1A processing (Rap1A processing) | farnesylation by FTase (FTase [2]; FIG. 15, listed as 4) | Substrate (FTase [2]; Table 4, substrate for farnesylation, TLC) | selectivity for FTase over GGTase I (FTase [3]) [fold] | Selectivity (FTase [3]; Table 4, FTase over GGTase I) | IC50 (FTase [3]; Table 4, read-out: FTase IC50) [nM] | lowest concentration that inhibited Ras processing (Ras processing) [µM] | inhibition of Ras processing (Ras processing; 100 μM) | IC50 (GGTase I; Table 4, read-out: GGTase-I IC50) [µM] | IC50 (GGTase I; read-out: GGTase I IC50) [µM]
1 | Cys-Ile-Phe-Met (CIFM; printed: Cys-Ile-Phe-Met) | 30 | – | – | – | – | – | – | – | – | – | – | –
2 | N[C@@H](CS)CNc1ccc(-c2cccc(C(=O)O)c2)cc1 [FTI-265, 4-N-[2(R)-amino-3-mercaptopropyl]amino-3'-carboxybiphenyl] | – | 50 | not able to inhibit Rap1A geranylgeranylation | prevented farnesylation; also recorded: not substrates for farnesylation | no | 877 | 877 | 114 | 50 | potently inhibit Ras processing | 100 | 100
